≈ marks a conversion by molar mass, not a printed value. Read-outs that look alike come from different tables or passages of the source.
Key:
Type in all cases: cell-based
[1] = test system: Influenza A virus (hanfang359/95); assay: Determination of anti-influenza virus activity (CPE in MDCK cells); conditions: for IC50: Influenza A virus, MDCK, 36 h; for anti-influenza virus activities compared with the lead compound cajanine: statement in words
Coxsackie virus B6 = assay: Coxsackie virus activity assay (CPE in Vero cells); conditions: Vero, read-out: COX-B6 IC50, Vero cells, about 100TCID50, CPE, Reed-Muench
HCV = assay: Anti-hepatitis C virus (HCV) activity assay (HCV RNA in Huh7.5 cells); conditions: for EC50: Hepatitis C virus, Huh7.5, 72 h, Huh7.5 cells, 72 h, HCV RNA by RT-PCR, Reed-Muench, read-out: HCV EC50; for anti-HCV viral activity: statement in words
Method: Inoculate Huh7.5 cells into 96-well plates to a density of 3×10^4 cells/cm^2, culture for 24h, infect the cells with 45 IU/cell HCV supernatant, meanwhile, add drug solutions or solvent control for treatment.

HIV-1 III B virus = assay: Anti-HIV activity assay (P24 antigen in MT-4 cells); conditions: for IC50: Human immunodeficiency virus 1, MT4, 96 h, read-out: HIV IC50; for anti-HIV viral activity: statement in words
PC12 cells [2] = assay: Neuroprotective activity assay, serum-deprived injury to PC12 cells (MTT); conditions: for viability at 10 µM: Rattus norvegicus, PC-12, 48 h, 10 μM test compound, 48 h, Control 100.0 ± 9.2, Model 69.3 ± 4.1, read-out: serum-deprived (surviving PC12 cells, MTT 570 nm); for protective effect on serum-deprived injury to PC12 cells: statement in words
Outline: (§1)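 PC12 cells on poly-lysine plated 24 h, then injured 48 h by serum-free DMEM or 4 μM rotenone with 10 μM test compound present during injury. Viability read by MTT (4 h), absorbance 570 nm.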

PC12 cells [3] = assay: Neuroprotective activity assay, rotenone injury to PC12 cells (MTT); conditions: for viability at 10 µM: Rattus norvegicus, PC-12, 48 h, 10 μM test compound, 4 μM rotenone, 48 h, Control 100.0 ± 8.9, Model 73.2 ± 7.8, read-out: rotenone (surviving PC12 cells, MTT 570 nm); for protective effect on rotenone injury to PC12 cells: statement in words
Outline: as §1

[4] = MT-4 cells, HIV-1 III B 100TCID50, 96 h, P24 antigen

Compound | IC50 [1] [µg/mL] | anti-influenza virus activities compared with the lead compound cajanine [1] | IC50 (Coxsackie virus B6) [µg/mL] | EC50 (HCV) [µg/mL] | IC50 (HIV-1 III B virus; [4]) [µg/mL] | viability at 10 µM (PC12 cells [2]) [%] | viability at 10 µM (PC12 cells [3]) [%] | IC50 (HIV-1 III B virus) [µg/mL] | anti-HCV viral activity (HCV) | anti-HIV viral activity (HIV-1 III B virus) | protective effect on serum-deprived injury to PC12 cells (PC12 cells [2]) | protective effect on rotenone injury to PC12 cells (PC12 cells [3])
COc1cc(/C=C/c2cccc(C)c2)cc(O)c1CC=C(C)C [Compound 10f, 2-isopentenyl-3-methoxy-5-[(E)-3′-methylstyryl]phenol] | 0.89 (≈ 2.89 µM) | significantly stronger than the lead compound cajanine | 1.26 (≈ 4.09 µM) | 0.87 (≈ 2.82 µM) | 0.46 (≈ 1.49 µM) | 74.5 ± 6.5 | 76.5 ± 8 | – | – | – | – | –
COc1cc(/C=C/c2ccc(C)cc2)cc(O)c1CC=C(C)C [Compound 10g, 2-isopentenyl-3-methoxy-5-[(E)-4′-methylstyryl]phenol] | > 6.19 | – | 1.18 (≈ 3.83 µM) | 3.09 (≈ 10 µM) | – | 81.3 ± 2.5 | 80.3 ± 3.2 | 1.18 (≈ 3.83 µM) | – | – | – | –
CC/C=C/c1cc(O)c(CC=C(C)C)c(OC)c1 [Compound 10h, 2-isopentenyl-3-methoxy-5-[(E)-buten-1-yl]phenol] | 0.74 (≈ 3 µM) | – | > 2.06 | 0.74 (≈ 3 µM) | 0.96 (≈ 3.9 µM) | 65.8 ± 9.2 | 67.8 ± 8.5 | – | – | – | – | –
COc1cc(/C=C/c2cccs2)cc(O)c1CC=C(C)C [Compound 10j] | > 18.5 | – | 1.56 (≈ 5.19 µM) | 0.87 (≈ 2.9 µM) | 0.66 (≈ 2.2 µM) | 82.3 ± 2.5 | 84.6 ± 5.2 | – | stronger anti-HIV, HCV viral activities | stronger anti-HIV, HCV viral activities | the strongest activities | the strongest activities
COc1cc(/C=C/Cc2ccccc2)cc(O)c1CC=C(C)C [Compound 10k, 2-isopentenyl-3′-methoxy-5-[(E)-3′-phenylpropen-1′-yl]phenol] | 0.89 (≈ 2.89 µM) | significantly stronger than the lead compound cajanine | > 2.06 | 0.99 (≈ 3.21 µM) | 1.06 (≈ 3.44 µM) | 85.6 ± 3.2 | 84.6 ± 2.4 | – | – | – | the strongest activities | the strongest activities
COc1cc(/C=C/CCc2ccccc2)cc(O)c1CC=C(C)C [Compound 10l, 2-isopentenyl-3-methoxy-5-[(E)-4′-phenylbuten-1′-yl]phenol] | 0.65 (≈ 2.02 µM) | significantly stronger than the lead compound cajanine | > 18.2 | 0.95 (≈ 2.95 µM) | 2.2 (≈ 6.82 µM) | 81.3 ± 2.9 | 84.6 ± 6.2 | – | stronger anti-HIV, HCV viral activities | stronger anti-HIV, HCV viral activities | the strongest activities | the strongest activities
COc1cc(/C=C/C=C/c2ccccc2)cc(O)c1CC=C(C)C [Compound 10m, 2-isopentenyl-3-methoxy-5-[(1′E,3′E)-phenylbutadiene-1′,3′-yl]phenol] | 2.35 (≈ 7.33 µM) | significantly stronger than the lead compound cajanine | 6.12 (≈ 19.1 µM) | 1.75 (≈ 5.46 µM) | 2.33 (≈ 7.27 µM) | 89.3 ± 6.4 | 85.3 ± 7.1 | – | stronger anti-HIV, HCV viral activities | stronger anti-HIV, HCV viral activities | the strongest activities | the strongest activities
COc1cc(/C=C/c2ccccc2)cc(O)c1C/C=C(\C)CCC=C(C)C [Compound 10o] | > 2.06 | – | 0.96 (≈ 2.65 µM) | 1.32 (≈ 3.64 µM) | 0.96 (≈ 2.65 µM) | 86.3 ± 3.8 | 87.6 ± 5.4 | – | stronger anti-HIV, HCV viral activities | stronger anti-HIV, HCV viral activities | the strongest activities | the strongest activities
COc1cc(/C=C/C2CCCCC2)cc(O)c1CC=C(C)C [Compound 10p, 2-isopentenyl-3-methoxy-5-[(E)-2-cyclohexylvinyl]phenol] | 2.65 (≈ 8.82 µM) | – | > 6.19 | 2.95 (≈ 9.82 µM) | 7.19 (≈ 23.9 µM) | 84.6 ± 2.7 | 86.7 ± 9.1 | – | – | – | the strongest activities | the strongest activities
COc1cc(/C=C/c2ccc(O)cc2)cc(O)c1CC=C(C)C [Compound 10q, 2-isopentenyl-3-methoxy-5-[(E)-4′-hydroxystyryl]-phenol] | 1.39 (≈ 4.48 µM) | significantly stronger than the lead compound cajanine | 2.35 (≈ 7.57 µM) | 0.89 (≈ 2.87 µM) | 2.38 (≈ 7.67 µM) | 79.5 ± 1.4 | 76.8 ± 5.8 | – | stronger anti-HIV, HCV viral activities | stronger anti-HIV, HCV viral activities | – | –
COc1cc(/C=C/c2ccncc2)cc(O)c1CC=C(C)C [Compound 10r, 2-isopentenyl-3-methoxy-5-[(E)-(pyrid-4-yl)ethenyl]phenol] | > 0.69 | – | 3.23 (≈ 10.9 µM) | 1.71 (≈ 5.79 µM) | 1.73 (≈ 5.86 µM) | 68.5 ± 2.4 | 58.4 ± 6.5 | – | – | – | – | –
COc1c(Cl)c(/C=C/c2ccccc2)cc(O)c1CC=C(C)C [Compound 10s, 2-isopentenyl-3-methoxy-4-chloro-5-[(E)-styryl]phenol] | > 6.17 | – | 4.35 (≈ 13.2 µM) | 5.17 (≈ 15.7 µM) | 2.75 (≈ 8.36 µM) | 78.5 ± 6.3 | 79.8 ± 3.5 | – | – | – | – | –
COc1cc(CCc2ccccc2)cc(O)c1CCC(C)C [Compound 10u, 2-isopentyl-3-methoxy-5-phenethyl phenol] | > 2.06 | – | > 6.19 | 4.06 (≈ 13.6 µM) | 6.39 (≈ 21.4 µM) | 87.6 ± 3.2 | 85.4 ± 2.3 | – | – | – | the strongest activities | the strongest activities
COc1cc(CCc2ccccc2)cc(O)c1CC=C(C)C [Compound 10v, 2-isopentenyl-3-methoxy-5-phenethyl phenol] | > 0.69 | – | > 6.19 | 1.73 (≈ 5.84 µM) | 1.36 (≈ 4.59 µM) | 85.2 ± 4.1 | 87.1 ± 2.5 | – | – | – | the strongest activities | the strongest activities
COc1cc(/C=C/c2ccccc2)cc(O)c1CCC(C)C [Compound 10w, 2-isopentyl-3-methoxy-5-[(E)-styryl]phenol] | 0.53 (≈ 1.79 µM) | significantly stronger than the lead compound cajanine | 2.45 (≈ 8.27 µM) | 2.59 (≈ 8.74 µM) | 0.75 (≈ 2.53 µM) | 79.1 ± 4.6 | 78.2 ± 5.8 | – | – | – | – | –
